In article PMC11156613 (Journal of Advanced Research, 2023):
Like-named read-outs stand apart in the source and are kept apart here.

Experiments:
Recombinant human HDAC1 = Recombinant human HDAC1 (Homo sapiens, UniProt Q13547); assay: In vitro HDAC enzymatic assay, HDAC1; assay type: biochemical
Recombinant human HDAC2 = Recombinant human HDAC2 (Homo sapiens, UniProt Q92769); assay: In vitro HDAC enzymatic assay, HDAC2; assay type: biochemical
Recombinant human HDAC6 = biological target: T1, Recombinant human HDAC6 (Homo sapiens, UniProt Q9UBN7); assay: In vitro HDAC enzymatic assay, HDAC6; assay type: biochemical
T1 sequence (Q9UBN7 1-1215): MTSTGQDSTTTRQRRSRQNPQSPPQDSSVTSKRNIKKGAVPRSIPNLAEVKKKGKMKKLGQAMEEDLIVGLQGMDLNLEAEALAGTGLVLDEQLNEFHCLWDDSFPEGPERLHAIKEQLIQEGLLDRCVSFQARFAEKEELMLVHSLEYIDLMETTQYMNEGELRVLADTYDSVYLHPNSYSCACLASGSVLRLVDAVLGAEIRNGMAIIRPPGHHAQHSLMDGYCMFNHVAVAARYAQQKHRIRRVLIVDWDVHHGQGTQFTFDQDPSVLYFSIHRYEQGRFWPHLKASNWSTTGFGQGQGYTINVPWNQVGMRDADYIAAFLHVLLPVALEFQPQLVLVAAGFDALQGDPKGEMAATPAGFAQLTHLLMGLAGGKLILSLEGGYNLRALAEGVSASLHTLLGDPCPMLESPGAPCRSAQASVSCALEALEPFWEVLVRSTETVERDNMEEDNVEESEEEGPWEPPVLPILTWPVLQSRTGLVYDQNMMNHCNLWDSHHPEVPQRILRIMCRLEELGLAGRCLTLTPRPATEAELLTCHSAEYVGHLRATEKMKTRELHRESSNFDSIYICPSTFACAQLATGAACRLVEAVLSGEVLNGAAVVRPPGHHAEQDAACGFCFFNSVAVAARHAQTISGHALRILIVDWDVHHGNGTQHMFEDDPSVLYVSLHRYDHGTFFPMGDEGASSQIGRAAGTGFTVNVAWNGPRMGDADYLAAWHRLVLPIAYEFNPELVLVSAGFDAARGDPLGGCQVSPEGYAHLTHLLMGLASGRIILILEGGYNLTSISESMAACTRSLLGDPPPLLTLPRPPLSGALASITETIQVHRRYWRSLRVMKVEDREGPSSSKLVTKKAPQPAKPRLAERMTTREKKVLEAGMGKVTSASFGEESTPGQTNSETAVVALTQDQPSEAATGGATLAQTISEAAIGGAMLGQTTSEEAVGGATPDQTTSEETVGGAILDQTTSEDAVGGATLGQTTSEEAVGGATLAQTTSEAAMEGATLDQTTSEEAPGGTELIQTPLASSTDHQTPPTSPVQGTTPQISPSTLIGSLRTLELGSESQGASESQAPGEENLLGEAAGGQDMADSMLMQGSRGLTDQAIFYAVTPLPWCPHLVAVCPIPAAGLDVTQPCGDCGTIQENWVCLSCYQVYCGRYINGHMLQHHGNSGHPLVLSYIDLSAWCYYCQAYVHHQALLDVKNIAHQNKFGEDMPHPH

recombinant human HDAC8 = biological target: T2, recombinant human HDAC8 (Homo sapiens, UniProt Q9BY41); assay: In vitro HDAC8 homogenous fluorescence assay; assay type: biochemical
T2 sequence (Q9BY41 1-377): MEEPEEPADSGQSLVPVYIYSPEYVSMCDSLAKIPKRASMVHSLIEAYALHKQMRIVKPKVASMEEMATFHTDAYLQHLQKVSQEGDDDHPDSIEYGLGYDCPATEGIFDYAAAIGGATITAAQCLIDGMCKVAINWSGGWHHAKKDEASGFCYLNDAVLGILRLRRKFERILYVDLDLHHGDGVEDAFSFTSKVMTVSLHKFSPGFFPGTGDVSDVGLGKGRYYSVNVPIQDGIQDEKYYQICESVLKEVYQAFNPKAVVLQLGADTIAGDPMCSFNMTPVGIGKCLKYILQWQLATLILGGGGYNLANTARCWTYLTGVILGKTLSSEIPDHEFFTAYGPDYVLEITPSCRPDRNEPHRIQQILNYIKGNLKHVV

Recombinant human HDAC11 = biological target: T3, Recombinant human HDAC11 (Homo sapiens, UniProt Q96DB2); assay: In vitro HDAC11 inhibition assay; assay type: biochemical
T3 sequence (Q96DB2 1-347): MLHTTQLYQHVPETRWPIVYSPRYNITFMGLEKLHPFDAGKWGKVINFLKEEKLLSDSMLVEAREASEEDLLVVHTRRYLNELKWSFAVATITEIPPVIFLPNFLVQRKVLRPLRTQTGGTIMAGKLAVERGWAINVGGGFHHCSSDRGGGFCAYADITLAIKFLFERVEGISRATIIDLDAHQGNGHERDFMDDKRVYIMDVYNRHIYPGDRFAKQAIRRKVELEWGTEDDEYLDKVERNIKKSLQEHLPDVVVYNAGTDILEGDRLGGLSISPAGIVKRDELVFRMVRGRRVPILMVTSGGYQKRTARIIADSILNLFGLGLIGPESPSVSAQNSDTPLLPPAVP

HEL cells = assay: Apoptosis induction, annexin-V/PI flow cytometry; assay type: cell-based, human; settings: 24 h
[1] = biological target: Recombinant human HDAC3/NCOR1 (Homo sapiens, UniProt O15379); assay: In vitro HDAC enzymatic assay, HDAC3
Recombinant human HDAC3/NCOR1, sequence (O15379 whole entry): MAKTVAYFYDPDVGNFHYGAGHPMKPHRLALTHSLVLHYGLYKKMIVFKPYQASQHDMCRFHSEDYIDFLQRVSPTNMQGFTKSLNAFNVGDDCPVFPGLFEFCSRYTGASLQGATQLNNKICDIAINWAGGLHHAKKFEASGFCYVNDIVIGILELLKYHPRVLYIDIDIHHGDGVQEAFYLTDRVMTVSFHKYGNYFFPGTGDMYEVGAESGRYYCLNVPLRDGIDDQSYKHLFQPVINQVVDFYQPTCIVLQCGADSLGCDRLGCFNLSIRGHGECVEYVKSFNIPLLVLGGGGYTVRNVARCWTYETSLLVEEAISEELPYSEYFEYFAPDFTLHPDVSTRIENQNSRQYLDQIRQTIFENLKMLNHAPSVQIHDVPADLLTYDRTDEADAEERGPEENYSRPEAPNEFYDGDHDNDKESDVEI
Recombinant human HDAC3/NCOR1, sequence (O75376 395-489 partner limits assumed): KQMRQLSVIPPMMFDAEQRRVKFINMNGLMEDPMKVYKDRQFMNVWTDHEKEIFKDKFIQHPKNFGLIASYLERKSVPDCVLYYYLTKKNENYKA

Recombinant human HDAC1, sequence (Q13547 whole entry): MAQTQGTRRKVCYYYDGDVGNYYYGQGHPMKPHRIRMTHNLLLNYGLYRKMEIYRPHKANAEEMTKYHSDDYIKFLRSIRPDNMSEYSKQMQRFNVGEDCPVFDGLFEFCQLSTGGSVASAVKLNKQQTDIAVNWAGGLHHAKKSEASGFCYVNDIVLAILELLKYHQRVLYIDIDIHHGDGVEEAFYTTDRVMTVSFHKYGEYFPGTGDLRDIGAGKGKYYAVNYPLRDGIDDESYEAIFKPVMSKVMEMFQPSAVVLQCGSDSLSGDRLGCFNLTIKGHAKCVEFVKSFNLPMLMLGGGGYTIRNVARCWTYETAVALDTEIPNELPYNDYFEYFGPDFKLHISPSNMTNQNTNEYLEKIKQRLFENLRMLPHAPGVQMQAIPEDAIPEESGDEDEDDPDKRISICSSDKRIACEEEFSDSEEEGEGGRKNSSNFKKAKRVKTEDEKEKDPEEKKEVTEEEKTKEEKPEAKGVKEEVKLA
Recombinant human HDAC2, sequence (Q92769 whole entry): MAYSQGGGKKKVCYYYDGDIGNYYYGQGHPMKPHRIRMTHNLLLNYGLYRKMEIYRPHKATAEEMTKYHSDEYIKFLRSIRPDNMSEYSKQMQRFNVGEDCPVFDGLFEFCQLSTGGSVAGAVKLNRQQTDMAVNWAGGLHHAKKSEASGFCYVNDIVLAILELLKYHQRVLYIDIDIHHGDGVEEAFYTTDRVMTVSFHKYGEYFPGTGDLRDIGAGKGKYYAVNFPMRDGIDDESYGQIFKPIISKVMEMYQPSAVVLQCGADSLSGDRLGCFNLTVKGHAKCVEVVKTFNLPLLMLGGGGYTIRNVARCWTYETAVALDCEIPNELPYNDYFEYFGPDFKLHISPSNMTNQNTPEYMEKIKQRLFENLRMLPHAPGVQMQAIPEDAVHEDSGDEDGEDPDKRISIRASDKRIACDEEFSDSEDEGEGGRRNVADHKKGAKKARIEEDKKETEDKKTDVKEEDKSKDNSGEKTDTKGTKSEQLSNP

Row | Structure (SMILES) | IC50 (Recombinant human HDAC1; HDAC1 IC50, Ac-RHKK(Acetyl)-AMC substrate, 37 °C) | IC50 (Recombinant human HDAC1; HDAC1 IC50, as stated in text) | IC50 (Recombinant human HDAC2) | IC50 (Recombinant human HDAC6) | fold more potent inhibitor of HDAC6 than KH9 and KH16 (Recombinant human HDAC6; from Table 1 IC50 values) | IC50 (recombinant human HDAC8) | IC50 (Recombinant human HDAC11) | concentration at which apoptosis induction starts (HEL cells) | IC50 [1] | IC50 (Recombinant human HDAC1; read-out: HDAC1 IC50) | IC50 (Recombinant human HDAC1; read-out: HDAC1 IC50, Ac-RHKK(Acetyl)-AMC substrate, 37 °C) | IC50 (Recombinant human HDAC2; read-out: HDAC2 IC50, Ac-RHKK(Acetyl)-AMC substrate, 37 °C) | IC50 (Recombinant human HDAC6; read-out: HDAC6 IC50, Abz-SRGGK(thio-TFA)FFRR-NH2 substrate) | IC50 (recombinant human HDAC8; read-out: HDAC8 IC50, ZMAL 10.5 μM, 90 min, 37 °C) | IC50 (Recombinant human HDAC11; read-out: HDAC11 IC50) | IC50 ([1]; read-out: HDAC3 IC50, Ac-RHKK(Acetyl)-AMC substrate, 37 °C)
1 | Cl.Cn1cc(CN2CCN(c3ncc(C(=O)NO)cn3)CC2)c2ccccc21 [KH29, N-hydroxy-2-(4-((1-methyl-1H-indol-3-yl)methyl)piperazin-1-yl)pyrimidine-5-carboxamide Hydrochloride] | 9.4 ± 0.5 nM | 9 nM | 26 ± 1 nM | 25 ± 1 nM | at least 10 fold | 49 ± 2 nM | 1000 ± 100 nM | 55 nM | 20 ± 1 nM | – | – | – | – | – | – | –
2 | COc1ccc(/C=C/CN2CCN(c3ncc(C(=O)NO)cn3)CC2)cc1.Cl [KH9, (E)-N-Hydroxy-2-(4-(3-(4-methoxyphenyl)allyl)piperazin-1-yl)pyrimidine-5-carboxamide Hydrchloride] | – | – | – | – | – | – | – | approximately 50 nM | – | 9 nM | 8.9 ± 0.5 nM | 22 ± 1 nM | 140 ± 10 nM | 110 ± 10 nM | 1500 ± 100 nM | 19 ± 1 nM
